Results: US10206944B2, “Chondroitin for use in medicine” (ALTERGON S.A., priority 2012, dated 2019)

Columns and labels:
[1] = test system: Aggrecan; experiment: Real-Time PCR gene expression in human chondrocytes: aggrecan; assay type: cell-based; conditions: 1% w/v, ratio to untreated control
Procedure: (§1) To evaluate the biological effects of chondroitin on human chondrocyte cultures, the expression of a set of genes considered key to establishing the phenotype, and suitable markers for evaluating the quality of the tissue generated, was determined. The study was conducted on chondrocytes prepared from human cartilage, as reported in Example 2, the cells being grown in the presence of chondroitin or chondroitin sulphate. Using a standard procedure, 5*10^4 cells per well were seeded in a 24-well multiwell plate. The chondrocytes were grown in DMEM containing 1% w/v of chondroitin or chondroitin sulphate (endotoxin content ≤0.1 EU/mg). The cells were stimulated for 4, 7 and 10 days (Ishak et al., International J. of Pediatric Otorhinolaryngology, 2011, 75: 835-840), after which the RNA was extracted with Trizol Reagent, as described in the kit manual (Life Technologies Ltd, Milan, Italy). A qualitative morphological analysis of the cell culture was also conducted at the various times, in parallel with RNA extraction, by observing the corresponding samples at 4, 7 and 10 days under the optical microscope. The cells seeded at the three different times were observed under the microscope, and the images that best represented the cell growth conditions were acquired using a time-lapse videomicroscopy workstation. After RNA extraction, reverse transcription was performed with a total of 1 μg RNA and then with amplification by Real-Time PCR of genes which are specific markers for chondrocytes (Table 3).
(§2) Genes connected with matrix production, such as aggrecan, type I collagen, type II collagen and the Sox9 gene, the expression of which is closely correlated with the expression of type II collagen, were analysed as specific markers for differentiation and characterisation of chondrocytes. (Akiyama H., Mod Rheumatol., 2008, 18(3): 213-9; Yang et al., J. of Orthopaedic Res. 2011).
(§3) The gene expression of said markers on human chondrocytes cultured in basic medium (control) and with chondroitin treatment (C) or chondroitin sulphate treatment (CS) was analysed on cell cultures in the second and third growth phases.
(§4) The results of the gene expression analysis were reported as the average of at least 3 independent experiments for tests conducted in the presence of C or CS, on cells in phases 2 and 3.

[2] = test system: Collagen Type II; experiment: Real-Time PCR gene expression in human chondrocytes: type II collagen; assay type: cell-based; conditions: 1% w/v, ratio to untreated control
Procedure: as §1, §2, §3, §4

[3] = test system: HT-1376 cells; experiment: Flow cytometry of apoptotic and necrotic cells (Annexin V-FITC/PI); assay type: cell-based, human; set-up: unit not given here; conditions: 48 h, alone or combined
Procedure: Flow cytometry was used to evaluate the quantity of apoptotic or necrotic cells. Fluorescein isothiocyanate (Annexin V-FITC) combined with propidium iodide (PI) was used as marker; the apoptotic cells were Annexin V-FITC positive and PI negative, and the necrotic cells were Annexin V-FITC positive and PI positive. The cells were labelled by incubating them with Annexin V-FITC (Diagnostics MedSystems) and PI (Sigma) in a binding buffer (10 mM HEPES, pH 7.4, 150 mM NaCl, 5 mM KCl, 1 mM MgCl2, 2.5 mM CaCl2) for 10 min at ambient temperature, and then washing and resuspending the cell material in the same buffer. The apoptotic and necrotic cells were analysed by flow cytometry (FACScan, Becton-Dickinson), acquiring an average of 2×10^4 events per sample, with determinations in triplicate on three separate experiments.

[4] = test system: primary cultures of human chondrocytes; experiment: Chondrocyte proliferation test (time-lapse videomicroscopy); assay type: cell-based; conditions: 1% w/v
Description: Primary cultures of human chondrocytes isolated from healthy human cartilage samples obtained during rhinoplasty operations were used as model system. The tissue fragments just removed in the operating theatre were immersed in an 0.9% w/w NaCl saline solution and rapidly transferred to the laboratory for extraction of chondrocytes. Operating in sterile conditions under laminar-flow hood, the tissue sample was transferred to a petri dish where it was cut into small pieces using sterile tweezers and scalpels. The pieces of cartilage were then immersed in 0.01M phosphate buffer pH 7.4 (PBS) containing type 1 collagenase (3 mg/mL), dispase (4 mg/mL) and gentamicin (5 μL/mL of an 80 mg/mL solution) to ensure sterility during enzymatic digestion. The pieces were left to incubate overnight in a Falcon tube at 37° C., under stirring. After 16-18 h the solution was filtered through a 70 μm filter, transferring the parts adhering to the Falcon tube onto the filter and washing with 7-8 mL of DMEM 10% FBS. The filtrate was centrifuged at 1,500 rpm for 7 min, the supernatant was removed and the pellet was suspended in 10 mL of DMEM 10% FBS containing fungizone (5 μL/mL of an 80 mg/mL solution) and gentamicin (5 μL/mL of an 80 mg/mL solution). The cell suspension thus obtained was plated in a 25 cm^2 flask and incubated at 37° C. in a 5% CO2 atmosphere, with changes of medium every 2 or 3 days until complete confluency of the cell culture. The cells, which have the characteristic appearance of chondrocytes (small swollen cells with a slightly elongated shape), were detached from the base of the flask, counted and incubated again in fresh medium. Starting with 0.4 g of cartilage, about 2*10^6 cells were generally obtained in the second growth phase. Knowledge of the number of growth cycles to which the culture has previously been subjected is of crucial importance for primary cells; especially in the case of chondrocytes a cell differentiation process is observed wherein, as the growth phases proceed, the cells increasingly present an appearance morphologically similar to fibroblasts. For this reason the entire study is conducted with primary chondrocyte cultures at the 2nd-4th growth phase.
The effect of chondroitin on chondrocyte proliferation was evaluated with time-lapse videomicroscopy, as described in Example 1. The study was performed comparatively with chondrocytes stimulated with chondroitin sulphate, using non-stimulated chondrocytes as control system. 20*10^3 cells were seeded per well of a 24-well multiwell plate. The cells were treated with chondroitin or chondroitin sulphate with an endotoxin content ≤0.1 EU/mg at a concentration of 1% w/v in DMEM 10% FBS; in the controls, the cells were seeded in DMEM 10% FBS. The experiments were conducted in triplicate and analysed for a total time ranging between 96 and 120 h. Image analysis, conducted with Image Pro-plus 5.1 analysis software, allowed a precise number of cells to be obtained with a manual count at times pre-set by the operator, in order to construct a growth curve over time. The data analysis indicates (Table 2) that the growth of the cells treated with chondroitin was better than that of the untreated cells and the cells treated with chondroitin sulphate.

[5] = 0.04 μg/mL of C or CS and 0.15 μg/mL of GEM
[6] = 5.7 μg/mL of C or CS and 1.7 μg/mL of MMC

Row | Substance | Fold Expression, Aggrecan ([1]; phase II, 4 g) | Fold Expression, Aggrecan ([1]; phase II, 7 g) | Fold Expression, Aggrecan ([1]; phase II, 10 g) | Fold Expression, Aggrecan ([1]; phase III, 4 g) | Fold Expression, Aggrecan ([1]; phase III, 7 g) | Fold Expression, Aggrecan ([1]; phase III, 10 g) | Fold Expression, Collagen Type II ([2]; phase II, 4 g) | Fold Expression, Collagen Type II ([2]; phase II, 7 g) | Fold Expression, Collagen Type II ([2]; phase II, 10 g) | Fold Expression, Collagen Type II ([2]; phase III, 4 g) | Fold Expression, Collagen Type II ([2]; phase III, 10 g) | Cell state: apoptotic advanced [3, 5] | Cell state: apoptotic early [3, 5] | Cell state: necrotic [3, 5] | Cell state: viable [3, 5] | Cell state: apoptotic advanced [3, 6] | Cell state: apoptotic early [3, 6] | Cell state: necrotic [3, 6] | Cell state: viable [3, 6] | Number of chondrocytes ([4]; time 0 h) | also measured
1 | chondroitin | 0.08 ± 0.02 | 1.66±0.22 | 1.07 ± 0.15 | 0.16 ± 0.08 | 0.79 ± 0.2 | 2.3 ± 1.0 | 2.70 ± 0.32 | 2.4 ± 0.43 | 2.56 ± 0.75 | 1.69 ± 0.20 | 2.3 ± 0.16 | 7 ± 2 | 6 ± 1 | 28 ± 3 | 59 ± 2 | 2 ± 1 | 1 ± 1 | 41 ± 2 | 56 ± 3 | 7.0 ± 0.7 Cells × 10^4 | Fold Expression, Collagen Type II ([2]; phase III, 7 g): 2.62 ± 0.47; Number of chondrocytes ([4]; time 20 h): 10.2 ± 0.9 Cells × 10^4; Number of chondrocytes ([4]; time 40 h): 15.3 ± 1.3 Cells × 10^4; Number of chondrocytes ([4]; time 60 h): 22.0 ± 1.8 Cells × 10^4; Number of chondrocytes ([4]; time 80 h): 27.0 ± 2.0 Cells × 10^4; Number of chondrocytes ([4]; time 100 h): 32.0 ± 2.1 Cells × 10^4
2 | chondroitin sulphate [CS, reference compound] | 1.28 ± 0.75 | 0.72 ± 0.27 | 0.45 ± 0.19 | 0.17 ± 0.10 | 0.87 ± 0.20 | 0.59 ± 0.13 | 2.8 ± 0.75 | 1.25 ± 0.45 | 0.58 ± 0.29 | 0.50 ± 0.01 | 0.8 ± 0.45 | 5 ± 1 | 4 ± 1 | 23 ± 2 | 68 ± 4 | 1 ± 1 | 1 ± 1 | 36 ± 2 | 62 ± 4 | 7.0 ± 0.5 Cells × 10^4 | Number of chondrocytes ([4]; time 20 h): 10.0 ± 1.2 Cells × 10^4; Number of chondrocytes ([4]; time 40 h): 14.0 ± 1.8 Cells × 10^4; Number of chondrocytes ([4]; time 60 h): 18.0 ± 1.6 Cells × 10^4; Number of chondrocytes ([4]; time 80 h): 21.8 ± 1.7 Cells × 10^4; Number of chondrocytes ([4]; time 100 h): 25.0 ± 2.5 Cells × 10^4
